In patent publication US5916889A, “1,4-disubstituted piperazines” (Novo Nordisk A/S, priority 1996, dated 1999):

Test system: histamine induced paw oedema
Assay: Histamine induced paw oedema test (rat)
Assay type: in vivo, rat (male Sprague-Dawley)
Conditions: 1.0 mg/kg, intraperitoneally 15 minutes before the anaesthetics, paw swelling 20 minutes after histamine (50 microliter, 3 mg/ml)
Method: Compounds of formula I may be used to treat all painful, hyperalgesic and/or inflammatory conditions in which C-fibres play a pathophysiological role by eliciting neurogenic pain or inflammation, i.e.:
I. Histamine induced paw oedema
The rat histamine paw oedema test was performed essentially as described by Amann et al. (Europ. J. Pharmacol. 279, 227-231, 1995). In brief 250-300 g male Sprague-Dawley rats were anaesthetized with pentobarbital sodium, and placed on a 32 degree (Celsius) heated table. Ten minutes later histamine (50 micoliter, 3 mg/ml) was injected in the right hind paw and 20 minutes hereafter the paw swelling was determined by water plethysmography (Ugo Basile). Test compounds were administered intraperitoneally at 15 minutes before the anaesthetics.
Values for inhibition of histamine induced oedema response for some representative compounds are recorded in table 1.

Row | Compound | % Oedema inhibition [%]
1 | Cl.Cl.O=C(O)c1cccnc1N1CCN(CCC=C2c3cc(Cl)ccc3OCOc3ccc(Cl)cc32)CC1 [Example 2, 2-(4-(3-(2,10-Dichloro-12H-dibenzo[d,g][1,3]dioxocin-12-ylidene)-1-propyl)-piperazin-1-yl)-3-pyridinecarboxylic acid dihydrochloride] | 24
2 | Cl.O=C(O)c1cccc(N2CCN(CCCN3c4ccccc4CCc4ccccc43)CC2)n1 [Example 8, 6-(4-(3-(10,11-Dihydro-5H-dibenz[b,f]azepin-5-yl)-1-propyl)-1-piperazinyl)-2-pyridinecarboxylic acid hydrochloride] | 61
